Experimental data published in US6762189B1, “5-pyrimidinecarboxamide derivatives and the pharmaceutical compositions containing said derivatives” (Dong Wha Pharm. Ind. Co., Ltd., priority 1999, dated 2004).

Tests used:
HBV polymerase = target: T1, HBV polymerase (Hepatitis B virus genotype A2 subtype adw2, UniProt P03159); experiment: In vitro reverse transcription activity of HBV polymerase (ELISA-type, DIG/biotin nucleotides); type: biochemical; conditions: for inhibition at 0.01 µg/mL / inhibition at 0.1 µg/mL / inhibition at 1 µg/mL: read-out: Inhibition activity on HBV-RT (%)
T1 construct: made in house; host or cells: E. coli
Procedure: The following in vitro experiment was performed to determine the effect of the compounds of formula 1 on the activity of HBV polymerase during reverse transcription.
The present inventors submitted application for a patent concerning HBV polymerase genetically expressed in and separated from E. coli, the process of its preparation, and the method to measure the enzyme activities (KR 94-3918, KR 96-33998). In the present experiments HBV polymerase was used which had been expressed in E. coli as stated above.
The method used in the present invention to measure in vitro reverse transcribing activities of HBV polymerase is as follows. Basic principles are the same as for ELISA. Nucleotides with biotin or digoxigenin group attached are included as substrates and anti-DIG antibodies attached to peroxidase enzyme recognize the polymerized substrates.
To the wells coated with streptavidin, 20 μl of HBV polymerase, 20 μl of reaction mixture (10 μM each of DIG-UTP and Biotin-UTP, 46 mM Tris-HCl, 266 mM KCl, 27.5 mM MgCl2, 9.2 mM DTT substrate/primer hybrid), and 20 μl of test compound (added to 1, 0.1, and 0.01 μg/ml) were added and allowed to react a 22° C. for 15 hrs. During this reaction, HBV polymerase catalyzes DNA synthesis and digoxigenin and biotin attached to nucleotides form bonds with streptavidin coated on the bottom of wells. When the reaction was done, each well was washed with 250μl of cleaning buffer (pH 7.0) for 30 seconds, which was repeated five times to remove remaining impurities. 200 μl of anti-DIG-POD antibody was added to each well and allowed to react for 1 hr at 37° C., and the wells were washed with cleaning buffer to remove impurities. 200μl each of ABTS™, a substrate of peroxidase, was then added and allowed to react at room temperature for 30 min. Absorbance was measured at 405 nm using ELISA reader.
The percentage of reduction in HBV polymerase activities for reverse transcription was calculated using the group without test compound as a control and the results are shown in Table 3.

[1] = target: T2, HIV reverse transcriptase (Human immunodeficiency virus type 1 group M subtype B, UniProt P04585); experiment: In vitro HIV reverse transcriptase activity (non-radioactive reverse transcriptase assay kit); type: biochemical
T2 construct: activities of HIV reverse transcriptase; purchased Boehringer Mannheim
Procedure: The following in vitro experiments were done to determine the effect of compounds of formula 1 on the reduction of HIV enzyme activities in reverse transcription.
Non-radioactive reverse transcriptase assay kit (Boehringer Mannheim) was used in the measurement of in vitro transcriptase activities. 20 μl (40 ng) of HIV transcriptase and 20 μl of reaction mixture containing matrix-primer hybrid poly (A) oligo (dT) 15, DIG(digoxigenin)-dUTP, biotin-dUTP, and TTP were added to wells coated with streptavidin. Test compounds were also added at the final concentrations of 0.1 and 1 μg/ml and allowed to react at 37° C. for 1 hr. At this time, DNA is formed from RNA by the action of HIV transcriptase, forming bonds with streptavidin coated on the bottom of wells because of digoxigenin and biotin moieties attached to nucleotides.
When the reaction was completed, each well was washed with 250 μl. of cleaning buffer (pH 7.0) for 30 sec. five times to remove remaining impurities. 200 μl of anti-DIG-POD […] was added to each well, allowed to react at 37° C. for 1 hr and washed as above to remove impurities. 200 μl of ABTS™, a substrate for peroxidase, was added to each well and allowed to react at room temperature for 30min. Absorbance at 405 nm was then read for each solution using ELISA reader and used for quantitative determination of inhibitory effect on the HIV transcriptase activities. The percentage of reduction in the activities of HIV reverse transcriptase was calculated using the group without test compound as control and the results are represented in Table 5.

HBV = experiment: Inhibition of HBV proliferation in HBV producing cell line HepG 2.2.15 (competitive PCR of culture supernatant); type: cell-based, Hepatitis B virus; conditions: HepG 2.2.15, one week; for inhibition at 0.01 µg/mL / inhibition at 0.1 µg/mL / inhibition at 1 µg/mL: Hepatitis B virus, HepG2.2.15, 168 h, read-out: Inhibitory effect on the HBV proliferation, Inhibition activity on HBV-RT (%)
Procedure: The following experiment was performed to determine inhibitory effects of compounds of formula on the proliferation of HBV producing cell line.
To test for antiviral effect, replication and proliferation of HBV were measured in HepG 2.2.15, a human liver cancer cell line.
The cell concentration was adjusted to 1×10^5 cells/ml and 1 ml was added to each well of a 24-well cell culture plate, which was then kept in a culture box for 3-4 days at 37° C. under 5% CO2 until cells grew sufficiently, changing culture medium everyday. When the cells matured sufficiently, the test compounds were added to the final concentrations of 0.01, 0.1, and 1 μg/ml. One week after the addition of test compounds, he culture solution was centrifuged at 5,000 rpm for 10 min. 25 μl of supernatant was transferred to a new tube and 5 μl of lysis solution [0.54N NaOH, 0.06% NP40] was added to each tube. After keeping the tube at 37° C. for 1 hr, 30 μl . of neutralizing solution [0.09NHCl, 0.1MTris-HCl, pH7.4] was added as a reaction solution for competitive polymerase chain reaction (PCR).
PCR was performed using genetic sequence of HBV core protein as a matrix. PCR reaction was carried out by adding 1 unit of Taq polymerase enzyme to 25 pmol of each primer, 250 μM dNTP, 5 μl of PCR reaction solution [0.54N NaOH, 0.06% NP40, 0.09N HCl, 0.1M Tris-HCl, pH 7.4].
DNA polymerized by PCR was electrophoresed on Agarose gel and quantitatively analyzed using an image analyzer (Gel Dcc 1000, Bio-Rad) in order to evaluate the effect of compounds of the present invention on the reduction of HBV proliferation.
3TC (lamivudine) was used as a positive control at the same concentrations as those of the test compounds. The percentage of reduction in HBV proliferation was calculated using the group without test compound as a control and the results are represented in Table 4.

T1 sequence (P03159 whole entry): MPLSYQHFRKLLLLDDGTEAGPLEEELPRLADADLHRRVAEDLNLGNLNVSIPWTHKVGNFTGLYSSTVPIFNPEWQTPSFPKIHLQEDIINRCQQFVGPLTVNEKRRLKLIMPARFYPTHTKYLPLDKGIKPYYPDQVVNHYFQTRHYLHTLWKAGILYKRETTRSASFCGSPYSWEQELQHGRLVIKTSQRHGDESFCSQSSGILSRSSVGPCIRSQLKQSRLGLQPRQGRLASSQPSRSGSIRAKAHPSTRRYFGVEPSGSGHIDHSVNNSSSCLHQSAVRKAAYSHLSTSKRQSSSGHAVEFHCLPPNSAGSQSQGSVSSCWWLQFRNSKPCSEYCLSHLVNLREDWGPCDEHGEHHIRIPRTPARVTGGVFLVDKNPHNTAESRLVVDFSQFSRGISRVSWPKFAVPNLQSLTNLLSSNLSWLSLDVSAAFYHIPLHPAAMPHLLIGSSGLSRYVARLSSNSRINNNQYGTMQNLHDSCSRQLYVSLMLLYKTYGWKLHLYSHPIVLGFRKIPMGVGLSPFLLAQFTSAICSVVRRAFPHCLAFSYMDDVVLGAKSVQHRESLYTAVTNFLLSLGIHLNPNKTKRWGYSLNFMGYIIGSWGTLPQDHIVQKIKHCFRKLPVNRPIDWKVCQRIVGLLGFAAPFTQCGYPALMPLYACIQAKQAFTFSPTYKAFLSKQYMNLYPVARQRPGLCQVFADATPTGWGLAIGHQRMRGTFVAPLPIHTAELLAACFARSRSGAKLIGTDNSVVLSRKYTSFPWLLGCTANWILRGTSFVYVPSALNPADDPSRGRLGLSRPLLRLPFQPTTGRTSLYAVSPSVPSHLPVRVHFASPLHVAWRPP

| SMILES | inhibition at 0.01 µg/mL (HBV polymerase; 0.01 μg/ml test compound) | inhibition at 0.1 µg/mL (HBV polymerase; 0.1 μg/ml test compound) | inhibition at 1 µg/mL (HBV polymerase; 1 μg/ml test compound) | Inhibitory effect on the activities of HIV reverse transcriptase, Inhibition activity on HBV-RT (%) ([1]; 0.1 μg/ml test compound) | inhibition at 0.01 µg/mL (HBV; 0.01 μg/ml) | inhibition at 0.1 µg/mL (HBV; 0.1 μg/ml) | inhibition at 1 µg/mL (HBV; 1 μg/ml) | other results |
| --- | --- | --- | --- | --- | --- | --- | --- | --- |
| CSc1ncc(C(=O)NN2CCN(C)CC2)c(Nc2ccc3[nH]ncc3c2)n1 [Example 21, 4-(1H-5-indazolylamino)-N-(4-methyl-1-piperazinyl)-2-methylthio-5-pyrimidinecarboxamide] | 40% | 54% | 78% |  |  |  |  | melting point: 251 to 253 °C |
| CSc1ncc(C(=O)NCCN2CCOCC2)c(Nc2ccc3cn[nH]c3c2)n1 [Example 20] |  |  |  | 50% |  |  |  | Inhibition activity on HBV-RT (%) (HBV polymerase; 0.01 μg/ml test compound): 12%; Inhibition activity on HBV-RT (%) (HBV polymerase; 0.1 μg/ml test compound): 40%; Inhibition activity on HBV-RT (%) (HBV polymerase; 1 μg/ml test compound): 67%; Inhibitory effect on the activities of HIV reverse transcriptase, Inhibition activity on HBV-RT (%) ([1]; 1 μg/ml test compound): 89% |
| CSc1ncc(C(N)=O)c(Nc2ccc3[nH]ncc3c2)n1 [Example 1, 4-(1H-5-Indazolylamino)-2-methyl thio-5-pyrimidinecarboxamide] |  |  |  | 44% |  |  |  | Inhibition activity on HBV-RT (%) (HBV polymerase; 0.01 μg/ml test compound): 40%; Inhibition activity on HBV-RT (%) (HBV polymerase; 0.1 μg/ml test compound): 63%; Inhibition activity on HBV-RT (%) (HBV polymerase; 1 μg/ml test compound): 90%; Inhibitory effect on the HBV proliferation, Inhibition activity on HBV-RT (%) (HBV; 0.01 μg/ml): 25%; Inhibitory effect on the HBV proliferation, Inhibition activity on HBV-RT (%) (HBV; 0.1 μg/ml): 53%; Inhibitory effect on the HBV proliferation, Inhibition activity on HBV-RT (%) (HBV; 1 μg/ml): 82%; Inhibitory effect on the activities of HIV reverse transcriptase, Inhibition activity on HBV-RT (%) ([1]; 1 μg/ml test compound): 65% |
| CSc1ncc(C(N)=O)c(Nc2ccc3cn[nH]c3c2)n1 [Example 2, 4-(1H-6-Indazolylamino)-2-methylthio-5-pyrimidinecarboxamide] | 36% | 55% | 85% |  | 20% | 40% | 70% |  |
| CSc1ncc(C(=O)NC2CC2)c(Nc2ccc3cn[nH]c3c2)n1 [Example 6, N-cyclopropyl-4-(1H-6-Indazolylamino)-2-methylthio-5-pyrimidinecarboxamide] | 24% | 43% | 74% | 54% |  |  |  | Inhibition of HIV reverse transcriptase activity ([1]; 1 μg/ml test compound): 78% |
| Nc1ccn([C@@H]2CS[C@H](CO)O2)c(=O)n1 [Example 3TC, lamivudine, reference compound] |  |  |  |  | 48% | 80% | 99% |  |
| CC[C@H](CO)NC(=O)c1cnc(SC)nc1Nc1ccc2cn[nH]c2c1 [Example 12, N-[(1R)-1-(hydroxymethyl)propyl]-4-(1H-6-indazolylamino)-2-methylthio-5-pyrimidinecarboxamide] | 36% | 55% | 85% |  |  |  |  |  |
| CSc1ncc(C(=O)NN2CCOCC2)c(Nc2ccc3[nH]ncc3c2)n1 [Example 35, 4-(1H-5-indazolylamino)-2-methylthio-N-(4-morpholinyl)-5-pyrimidinecarboxamide] | 46% | 61% | 90% |  | 29% | 50% | 86% |  |
| COCCNC(=O)c1cnc(SC)nc1Nc1ccc2[nH]ncc2c1 [Example 13, 4-(1H-5-indazolylamino)-N-(2-methoxyethyl)-2-methylthio-5-pyrimidinecarboxamide] | 13% | 40% | 58% |  |  |  |  |  |
| CSc1ncc(C(=O)N(C)CCO)c(Nc2ccc3cn[nH]c3c2)n1 [Example 10, N-hydroxyethyl-N-methyl-4-(1H-6-indazolylamino)-2-methylthio-5-pyrimidinecarboxamide] | 22% | 48% | 70% | 47% |  |  |  | Inhibition of HIV reverse transcriptase activity ([1]; 1 μg/ml test compound): 80% |
| CC[C@H](CO)NC(=O)c1cnc(SC)nc1Nc1ccc2[nH]ncc2c1 [Example 11] |  |  |  |  |  |  |  | Inhibition activity on HBV-RT (%) (HBV polymerase; 0.01 μg/ml test compound): 44%; Inhibition activity on HBV-RT (%) (HBV polymerase; 0.1 μg/ml test compound): 59%; Inhibition activity on HBV-RT (%) (HBV polymerase; 1 μg/ml test compound): 82% |
| CSc1ncc(C(=O)N(C)CCO)c(Nc2ccc3[nH]ncc3c2)n1 [Example 9, N-hydroxyethyl-N-methyl-4-(1H-5-indazolylamino)-2-methylthio-5-pyrimidine Carboxamide] | 30% | 54% | 75% | 52% | 20% | 48% | 65% | Inhibition of HIV reverse transcriptase activity ([1]; 1 μg/ml test compound): 84% |
| CSc1ncc(C(=O)NCCO)c(Nc2ccc3[nH]ncc3c2)n1 [Example 7, N-(2-Hydroxyethyl)-4-(1H-5-indazolylamino)-2-methylthio-5-pyrimidinecarboxamide] | 48% | 76% | 93% |  | 21% | 61% | 92% |  |
| CCNC(=O)c1cnc(SC)nc1Nc1ccc2[nH]ncc2c1 [Example 5, N-ethyl-4-(1H-5-Indazolylamino)-2-methylthio-5-pyrimidinecarboxamide] | 20% | 52% | 70% | 57% |  |  |  | Inhibition of HIV reverse transcriptase activity ([1]; 1 μg/ml test compound): 80% |
| CSc1ncc(C(=O)NN2CCOCC2)c(Nc2ccc3[nH]ncc3c2)n1 (hydrate or solvate) [Example 35, 4-(1H-5-indazolylamino)-2-methylthio-N-(4-morpholinyl)-5-pyrimidinecarboxamide] |  |  |  |  |  |  |  | melting point: 239 to 242 °C |
